In patent EP0670721B1, “DRUG FOR TREATMENT AND PROPHYLAXIS OF BONE AND JOINT DISEASES” (Fricker, Christian, priority 1993, dated 1995):

Test: Oral treatment of bone and joint diseases with raised internal pressure (own controlled trials)
Type: in vivo, Menschen, Hund, Pferd
Details: osteoarthrosis (human and veterinary), podotrochlosis of the horse
Excerpt: Erfindungsgemäß konnte festgestellt werden, daß bei degenerativen Gelenkserkrankungen in den Epiphysen bei am Gelenk beteiligten Knochen ein pathologisch erhöhter Innendruck vorliegt. Analog zur Pathophysiologie des Kompartmentsyndroms wird der intraossäre Druckanstieg durch eine Anreicherung von osmotisch aktiven Substanzen in Intestitium verursacht. In Anlehnung an die vorgestellte Pathophysiologie kann somit erstmals eine kausale Therapie für degenerative Gelenkserkrankungen bereitgestellt werden. Benzopyrone und Dobesilat-calcium vermögen durch Stabilisierung der Kapillarwände einerseits und durch Proteinresorption andererseits den Druck im erkrankten Kompartment abzubauen. Der Druckabbau ermöglicht in der Folge eine Normalisierung der Mikrozirkulation und somit eine Gesundung der betroffenen Gewebe. Wie eigene, kontrollierte Versuche zeigen, eignen sich Benzopyrone wie auch Dobesilat-Calcium zur kausalen Therapie dieser auf innerem Überdruck in Knochen und Gelenken beruhenden Erkrankungen. Dies trifft insbesondere in der Human- und Veterinärmedizin für den Problemkreis der Osteoarthrose und in der Veterinärmedizin für die Podotrochlose des Pferdes zu.
Das 5,6-α-Benzopyron wurde in der Tagesdosis von: • 1 - 4 mg/kg KGW beim Menschen, • 2 - 4 mg/kg KGW beim Hund und • 0,5 - 1 mg/kg KGW beim Pferd peroral verabreicht. […]

Q: With `O=S(=O)(O)c1cc(O)ccc1O` [Dobesilat-Calcium] as the molecule, how does the “Eignung zur kausalen Therapie der auf innerem Überdruck in Knochen und Gelenken beruhenden Erkrankungen” value read?
A: Its value is “eignen sich”.
